Earlier results as cited in patent publication US20040043030A1, “Polymeric delivery systems” (Immunomedics, Inc., priority 2001, published 2004).

Legend:
tumor cells = settings: relative to doxorubicin
[1] = target: T1, human beta-D-glucuronidase (Homo sapiens, UniProt P08236); settings: Arcamone, Cancer Res., 45:5995, 1985
T1 sequence (P08236 23-651): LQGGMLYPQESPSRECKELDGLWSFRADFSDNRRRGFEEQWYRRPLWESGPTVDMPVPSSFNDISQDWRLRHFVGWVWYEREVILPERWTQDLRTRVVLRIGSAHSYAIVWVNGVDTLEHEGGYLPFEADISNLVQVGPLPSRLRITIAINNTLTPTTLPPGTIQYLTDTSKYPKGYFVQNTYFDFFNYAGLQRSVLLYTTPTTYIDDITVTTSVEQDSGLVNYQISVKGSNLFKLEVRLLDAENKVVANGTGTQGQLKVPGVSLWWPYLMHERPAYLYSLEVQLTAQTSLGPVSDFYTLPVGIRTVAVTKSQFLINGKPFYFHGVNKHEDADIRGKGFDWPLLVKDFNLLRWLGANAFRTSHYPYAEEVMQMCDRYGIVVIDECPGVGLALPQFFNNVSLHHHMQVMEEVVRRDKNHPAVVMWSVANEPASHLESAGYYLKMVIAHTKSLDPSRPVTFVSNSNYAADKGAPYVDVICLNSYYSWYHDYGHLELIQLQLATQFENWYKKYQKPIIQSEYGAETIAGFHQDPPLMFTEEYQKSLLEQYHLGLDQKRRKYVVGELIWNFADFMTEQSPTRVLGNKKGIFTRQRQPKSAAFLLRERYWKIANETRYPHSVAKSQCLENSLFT

Structure (SMILES): COc1cccc2c1C(=O)c1c(O)c3c(c(O)c1C2=O)C[C@@](O)(C(=O)CO)C[C@@H]3O[C@H]1C[C@H](N2C=CCC2)[C@H](O)[C@H](C)O1 [Example 2-PDOX, 2-pyrrolinodoxorubicin]
- more toxic to tumor cells than doxorubicin itself (tumor cells): 100-1000

Structure (SMILES): COc1cccc2c1C(=O)c1c(O)c3c(c(O)c1C2=O)C[C@@](O)(C(=O)CO)C[C@@H]3O[C@H]1C[C@H](N)[C@@H](O)[C@H](C)O1 [epirubicin]
- substrate for human beta-D-glucuronidase [1]: substrate
